From patent US20210403443A1, “SUBSTITUTED 1,2,4-OXADIAZOLE, ITS APPLICATION AND A PHARMACEUTICAL PREPARATION COMPRISING IT” (SVENOX PHARMACEUTICALS LLC, priority 2018, published 2021) come the findings set out here.

Common to all, as to assay: microbe, parasite or virus in culture
What all share (type): cell-based
Conditions in all cases: for MIC: Mycobacterium tuberculosis, 336 h, read-out: Minimum inhibiting concentration of substances with general formula I

The subject of test [1] is M. tuberculosis MDR strain Praha 4.
Test [2] relates to M. tuberculosis MDR strain 7357/1998.
Test [3] relates to M. tuberculosis MDR strain Praha 1.
Test [4] relates to M. tuberculosis MDR strain 9449/2007.
Test [5] has as its system M. tuberculosis MDR strain 234/2005.
The subject of test [6] is M. tuberculosis MDR strain Praha 131.
Test [7] deals with M. tuberculosis MDR strain 8666/2010.

In brackets after ≈: the same amount, converted by molar mass.

For `CO[C@H]1/C=C/O[C@@]2(C)Oc3c(C)c(O)c4c(O)c(c(/C=N/N5CCN(C)CC5)c(O)c4c3C2=O)NC(=O)/C(C)=C\C=C\[C@H](C)[C@H](O)[C@@H](C)[C@@H](O)[C@@H](C)[C@H](OC(C)=O)[C@@H]1C` [Rifampicin], the “Minimum inhibiting concentration of commonly used antibiotics and antituberculosis medicaments” value (from here on “Minimum inhibiting concentration”) in test [1], in test [2], in test [3], in test [4], in test [5] and in test [6] was >9.7 R μmol · l^−1 throughout. The “Minimum inhibiting concentration” value in test [7] was >9.7 R μmol · l^−1. Moreover, the “strain resistant or sensitive to the drug” value in test [1], in test [2], in test [3], in test [4], in test [5] and in test [6] was >9.7 R each time. In test [7], the “strain resistant or sensitive to the drug” value is recorded as >9.7 R.

On to `O=[N+]([O-])c1cc(CSc2nc(-c3ccc(F)cc3)no2)cc([N+](=O)[O-])c1` [Compound 8], for which the MIC in test [1], in test [2], in test [3], in test [4], in test [5] and in test [6] was 0.5 µM (≈ 0.188 µg/mL) in each case. Further, the MIC in test [7] turned out to be 0.5 µM (≈ 0.188 µg/mL).

`O=[N+]([O-])c1cc(CSc2nc(-c3ccc(Cl)cc3)no2)cc([N+](=O)[O-])c1` [Compound 4]: the MIC in test [1] is 0.5 µM (≈ 0.196 µg/mL); in test [2], 1 µM (≈ 0.393 µg/mL); in test [3], 2 µM (≈ 0.786 µg/mL); in test [4], 1 µM (≈ 0.393 µg/mL); in test [5] it was 0.5 µM (≈ 0.196 µg/mL); in test [6], 1 µM (≈ 0.393 µg/mL). The MIC in test [7] was determined as 0.5 µM (≈ 0.196 µg/mL).

On to `CC[C@@H](CO)NCCN[C@@H](CC)CO` [Etambutol], for which the “Minimum inhibiting concentration” value worked out at 19.6 R μmol · l^−1 in test [1]; 19.6 R μmol · l^−1 in test [2]; 39.2 R μmol · l^−1 in test [3]; 9.8 C μmol · l^−1 in test [4]; 19.6 R μmol · l^−1 in test [5]; 39.2 R μmol · l^−1 in test [6]. Moreover, the “Minimum inhibiting concentration” value in test [7] is 19.6 R μmol · l^−1. Further, the “strain resistant or sensitive to the drug” value in test [1] is listed as 19.6 R; in test [2], 19.6 R; in test [3] it was 39.2 R; in test [4] it was 9.8 C; in test [5], 19.6 R; in test [6] it was 39.2 R. For the same compound, in test [7], the “strain resistant or sensitive to the drug” value is 19.6 R.

For the compound `COc1ccc(-c2noc(SCc3cc([N+](=O)[O-])cc([N+](=O)[O-])c3)n2)cc1` [Compound 3], the MIC is 0.5 µM (≈ 0.194 µg/mL) in test [1]; 0.5 µM (≈ 0.194 µg/mL) in test [2]; 1 µM (≈ 0.388 µg/mL) in test [3]; 0.5 µM (≈ 0.194 µg/mL) in test [4]; 0.5 µM (≈ 0.194 µg/mL) in test [5]; 0.5 µM (≈ 0.194 µg/mL) in test [6]. Further, in test [7], the MIC worked out at 0.5 µM (≈ 0.194 µg/mL).

On to `CC1COc2c(N3CCN(C)CC3)c(F)cc3c(=O)c(C(=O)O)cn1c23` (stereo not shown) [Ofloxacin], for which the “Minimum inhibiting concentration” value in test [1] is recorded as >22.2 R μmol · l^−1; in test [2] it was 11.1 R μmol · l^−1; in test [3], 1.38 C μmol · l^−1; in test [4] it was 2.75 C μmol · l^−1; in test [5], 0.69 C μmol · l^−1; in test [6], 22.2 R μmol · l^−1. Moreover, in test [7], the “Minimum inhibiting concentration” value is recorded as 11.1 R μmol · l^−1. Besides, the “strain resistant or sensitive to the drug” value is given as >22.2 R in test [1]; 11.1 R in test [2]; 1.38 C in test [3]; 2.75 C in test [4]; 0.69 C in test [5]; 22.2 R in test [6]. The “strain resistant or sensitive to the drug” value in test [7] is given as 11.1 R.

As for `NCC[C@H](O)C(=O)N[C@@H]1C[C@H](N)[C@@H](O[C@H]2O[C@H](CN)[C@@H](O)[C@H](O)[C@H]2O)[C@H](O)[C@H]1O[C@H]1O[C@H](CO)[C@@H](O)[C@H](N)[C@H]1O` [Amikacin], the “Minimum inhibiting concentration” value is 0.85 C μmol · l^−1 in test [1]; 0.85 C μmol · l^−1 in test [2]; 0.43 C μmol · l^−1 in test [3]; 0.43 C μmol · l^−1 in test [4]; 0.43 C μmol · l^−1 in test [5]; >27.2 R μmol · l^−1 in test [6]. Moreover, the “Minimum inhibiting concentration” value in test [7] was 1.7 C μmol · l^−1. Also, the “strain resistant or sensitive to the drug” value is 0.85 C in test [1]; 0.85 C in test [2]; 0.43 C in test [3]; 0.43 C in test [4]; 0.43 C in test [5]; >27.2 R in test [6]. Also, in test [7], the “strain resistant or sensitive to the drug” value was 1.7 C.

Take `[H]/N=C(/N)N[C@H]1[C@H](O)[C@@H](O)[C@H](O[C@@H]2O[C@@H](C)[C@](O)(C=O)[C@H]2O[C@@H]2O[C@@H](CO)[C@H](O)[C@@H](O)[C@@H]2NC)[C@@H](N/C(N)=N\[H])[C@@H]1O` [Streptomycin]: the “Minimum inhibiting concentration” value was >27.5 R μmol · l^−1 in test [1]; >27.5 R μmol · l^−1 in test [2]; 13.7 R μmol · l^−1 in test [3]; >27.5 R μmol · l^−1 in test [4]; 27.5 R μmol · l^−1 in test [5]; >27.5 R μmol · l^−1 in test [6]. For the same compound, the “Minimum inhibiting concentration” value in test [7] is >27.5 R μmol · l^−1. Moreover, the “strain resistant or sensitive to the drug” value is reported as >27.5 R in test [1]; >27.5 R in test [2]; 13.7 R in test [3]; >27.5 R in test [4]; 27.5 R in test [5]; >27.5 R in test [6]. The “strain resistant or sensitive to the drug” value in test [7] was >27.5 R.
